Assay results: ChEMBL document CHEMBL4680185, “Discovery of novel cyclin-dependent kinase (CDK) and histone deacetylase (HDAC) dual inhibitors with potent in vitro and in vivo anticancer activity” (Eur J Med Chem, 2020)
Activity calls are given as the source filed them. The calls are words filed in the database; no cut-off is given here.

Tests used:
[1] = target: Histone deacetylase 1 (Homo sapiens, UniProt Q13547); experiment: Inhibition of human recombinant HDAC1 preincubated for 10 mins followed by addition of substrate fluor De Lys SIRT1 deacetylase measured after 30 mins by fluorescent plate reader analysis
[2] = target: CDK1/Cyclin A (Homo sapiens, UniProt P06493); experiment: Inhibition of recombinant human full length CDK1/cyclin A2 expressed in Sf9 cells incubated for 10 mins by ADP-Glo reagent assay
[3] = target: Histone deacetylase (Homo sapiens) (UniProt Q13547+O15379+Q9UBN7+Q92769+Q9UQL6+Q8WUI4+Q9BY41+Q96DB2+P56524+Q9UKV0+Q969S8); experiment: Inhibition of HDAC in human A375 cells assessed as increase in acetylation of H3K9 at 1 uM measured after 12 hr by DAPI staining based immunofluorescence analysis; assay type: cell-based; conditions: A-375
[4] = AUC (0 to infinity) in ICR mouse at 20 mg/kg, ip by LC-MS/MS analysis; assay type: ADME, organism-based; design: time infinity, route intraperitoneal, dose 20 mg/kg; conditions: in vivo
[5] = test system: HeLa; experiment: Induction of apoptosis in human HeLa cells assessed as number of apoptotic cells at 0.5 to 2 uM incubated for 48 hrs by annexin V-FITC/PI based flow cytometric analysis; assay type: functional, cell-based; conditions: dose 0.5-2 µM
[6] = target: Cyclin-dependent kinase 4/cyclin D1 (Homo sapiens, UniProt P11802); experiment: Inhibition of recombinant human full length CDK4/cyclin D1 expressed in Sf9 cells incubated for 10 mins by ADP-Glo reagent assay
[7] = test system: NCI-H460; experiment: Induction of apoptosis in human H460 cells assessed as number of apoptotic cells at 0.5 to 2 uM incubated for 48 hrs by annexin V-FITC/PI based flow cytometric analysis; assay type: functional, cell-based; conditions: dose 0.5-2 µM
[8] = MRT (0 to infinity) in ICR mouse at 20 mg/kg, ip by LC-MS/MS analysis; assay type: ADME, organism-based; conditions: in vivo
[9] = Biovailability in ICR mouse at 20 mg/kg, ip; assay type: ADME, organism-based; conditions: in vivo
[10] = target: Histone deacetylase 2 (Homo sapiens, UniProt Q92769); experiment: Inhibition of human recombinant HDAC2 preincubated for 10 mins followed by addition of substrate fluor De Lys green measured after 30 mins by fluorescent plate reader analysis
[11] = Tmax in ICR mouse at 20 mg/kg, ip by LC-MS/MS analysis; assay type: ADME, organism-based; conditions: in vivo
[12] = target: T1, Histone deacetylase 8 (Homo sapiens, UniProt Q9BY41); experiment: Inhibition of human recombinant HDAC8 preincubated for 10 mins followed by substrate addition measured after 30 mins by fluorescent plate reader analysis
T1 sequence (Q9BY41 whole entry): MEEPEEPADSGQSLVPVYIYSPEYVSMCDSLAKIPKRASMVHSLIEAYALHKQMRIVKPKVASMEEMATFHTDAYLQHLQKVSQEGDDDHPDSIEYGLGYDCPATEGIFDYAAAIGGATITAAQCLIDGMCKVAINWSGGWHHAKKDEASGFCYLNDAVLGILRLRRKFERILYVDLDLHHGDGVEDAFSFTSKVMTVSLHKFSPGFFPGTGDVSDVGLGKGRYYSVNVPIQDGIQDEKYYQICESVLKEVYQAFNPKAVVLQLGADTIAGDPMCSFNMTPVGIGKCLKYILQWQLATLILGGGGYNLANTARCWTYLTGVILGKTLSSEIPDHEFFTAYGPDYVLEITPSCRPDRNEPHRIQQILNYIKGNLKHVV

[13] = target: Cyclin-dependent kinase 7/ cyclin H (Homo sapiens, UniProt P50613); experiment: Inhibition of recombinant human full length CDK7/cyclin H1 expressed in Sf9 cells incubated for 10 mins by ADP-Glo reagent assay
[14] = Half life in ICR mouse at 20 mg/kg, ip by LC-MS/MS analysis; assay type: ADME, organism-based; conditions: in vivo
[15] = Cmax in ICR mouse at 20 mg/kg, ip by LC-MS/MS analysis; assay type: ADME, organism-based; design: route intraperitoneal, dose 20 mg/kg; conditions: in vivo
[16] = Cytotoxicity against mouse NIH/3T3 cells incubated for 72 hrs by CCK-8 assay; assay type: cell-based; conditions: NIH3T3, 72 h
[17] = test system: HCT-116; experiment: cells; assay type: functional, cell-based; conditions: Homo sapiens, HCT-116, 72 h
Description: Antiproliferative activity against human HCT116 cells assessed as inhibition of cell growth incubated for 72 hrs by CCK-8 assay

[18] = test system: NCI-H460; experiment: cells; assay type: functional; conditions: Homo sapiens, time 72 hrs, read-out: GI
[19] = target: CDK2/Cyclin A2 (Homo sapiens, UniProt P24941); experiment: Inhibition of recombinant human full length CDK2/cyclin A2 incubated for 10 mins by ADP-Glo reagent assay; assay type: protein-complex assay
[20] = target: Histone deacetylase 3/NCoR1 (Homo sapiens, UniProt O15379); experiment: Inhibition of human recombinant HDAC3/NCOR1 complex preincubated for 10 mins followed by addition of substrate fluor De Lys SIRT1 deacetylase measured after 30 mins by fluorescent plate reader analysis; assay type: protein-complex assay
[21] = test system: SMMC-7721; experiment: cells; assay type: functional, cell-based; conditions: Homo sapiens, SMMC-7721, 72 h
Description: Antiproliferative activity against human SMMC7721 cells assessed as inhibition of cell growth incubated for 72 hrs by CCK-8 assay

[22] = test system: A-375; experiment: Cell cycle arrest in human A375 cells assessed as increase in number of cells at G2/M phase at 2 uM incubated for 24 hrs by propidium iodide staining based flow cytometry (reference value: 1.13%); assay type: functional
[23] = test system: NCI-H460; experiment: Cell cycle arrest in human H460 cells assessed as increase in number of cells at G2/M phase at 0.5 to 2 uM incubated for 24 hrs by propidium iodide staining based flow cytometry; assay type: functional; conditions: dose 0.5-2 µM
[24] = test system: A-375; experiment: Cell cycle arrest in human A375 cells assessed as increase in number of cells at G2/M phase at 0.5 to 2 uM incubated for 24 hrs by propidium iodide staining based flow cytometry; assay type: functional; conditions: dose 0.5-2 µM
[25] = test system: HCT-116; experiment: Cell cycle arrest in human HCT116 cells assessed as increase in number of cells at G2/M phase at 0.5 to 2 uM incubated for 24 hrs by propidium iodide staining based flow cytometry; assay type: functional; conditions: dose 0.5-2 µM
[26] = test system: A-375; experiment: Induction of ROS generation in human A375 cells at 1 uM measured after 24 hrs by fluorescence microscopic analysis
[27] = test system: NCI-H460; experiment: Antimigratory activity against human H460 cells assessed as inhibition of cell migration at 0.5 uM measured after 48 hrs by cell scratch assay; assay type: functional, cell-based
[28] = test system: HCT-116; experiment: Induction of apoptosis in human HCT116 cells assessed as number of apoptotic cells at 2 uM incubated for 48 hrs by annexin V-FITC/PI based flow cytometric analysis relative to control; assay type: functional
[29] = test system: A-375; experiment: Antimigratory activity against human A375 cells assessed as inhibition of cell migration at 0.25 uM measured after 48 hrs by cell scratch assay; assay type: functional, cell-based
[30] = test system: NCI-H460; experiment: cells; assay type: functional, cell-based; conditions: Homo sapiens, NCI-H460, 72 h
Description: Antiproliferative activity against human H460 cells assessed as inhibition of cell growth incubated for 72 hrs by CCK-8 assay

[31] = test system: HeLa; experiment: Cell cycle arrest in human HeLa cells assessed as increase in number of cells at G2/M phase at 0.5 to 2 uM incubated for 24 hrs by propidium iodide staining based flow cytometry; assay type: functional; conditions: dose 0.5-2 µM
[32] = test system: A-375; experiment: Induction of apoptosis in human A375 cells assessed as number of apoptotic cells at 2 uM incubated for 48 hrs by annexin V-FITC/PI based flow cytometric analysis relative to control; assay type: functional
[33] = test system: A-375; experiment: cells; assay type: functional, cell-based; conditions: Homo sapiens, A-375, 72 h
Description: Antiproliferative activity against human A375 cells assessed as inhibition of cell growth incubated for 72 hrs by CCK-8 assay

SMILES	IC50 [1] [nM]	IC50 [2] [nM]	inhibition [3]	AUC [4] [ng·h/mL]	Activity [5]	IC50 [6] [nM]	Activity [7]	MRT inf [8] [h]	bioavailability [9] [%]	IC50 [10] [nM]	Tmax [11] [h]	IC50 [12] [nM]	IC50 [13] [nM]	t1/2 [14] [h]	Cmax [15] [ng/mL]	IC50 [16] [nM]	IC50 [17] [nM]	inhibition of growth at 8 µM [18] [%]	IC50 [19] [nM]	IC50 [20] [nM]	also measured
Nc1ccccc1NC(=O)Cc1ccc(NC(=O)c2n[nH]cc2NC(=O)c2c(Cl)cccc2Cl)cc1	240	12.6	Active	7200	Active	> 1000	Active	2.36	27.8	0.24	1	> 1000	> 1000	1.63	2170	4640	1450	67.4	0.56	> 1000	IC50 [21]: 5220 nM; Activity [22]: 66.48%; Activity [23]: Active; Activity [24]: Active; Activity [25]: Active; Activity [26]: Active; inhibition [27]: Active; Activity [28]: 77.1%; inhibition [29]: Active; IC50 [30]: 2630 nM; Activity [31]: Active; Activity [32]: 73.08%; IC50 [33]: 1600 nM
Nc1ccccc1NC(=O)c1ccc(CNC(=O)c2n[nH]cc2NC(=O)c2c(Cl)cccc2Cl)cc1	6.4	8.63	Active	30700	Active	> 1000	Active	3.31	63.6	0.25	2	> 1000	> 1000	2.61	7570	4470	710	78.3	0.3	45	IC50 [21]: 7760 nM; Activity [22]: 57.74%; Activity [23]: Active; Activity [24]: Active; Activity [25]: Active; Activity [26]: Active; inhibition [27]: Active; Activity [28]: 60.6%; inhibition [29]: Active; IC50 [30]: 4190 nM; Activity [31]: Active; Activity [32]: 97.22%; IC50 [33]: 1200 nM
